The values that follow are results of earlier work, collected in patent US9006272B2, “Pharmaceutical compositions and method for treating inflammation in cattle and other animals” (Intervet Inc., priority 2006, dated 2015).

Structures are written as SMILES.

The conditions of this series: background statement.

On to `Cc1c(Nc2ncccc2C(=O)O)cccc1C(F)(F)F` [flunixin meglumine], for which the lipid solubility result is on record as “very poor”.
